Laboratory results from US20190375708A1 (VenatoRx Pharmaceuticals, Inc., priority 2018, published 2019).

What was measured:
[1] = In vitro cytotoxicity assay (MTT cell viability) in HepG2 cells; format: cell-based, human; settings: human
Outline: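 Read-out: MTT formazan absorbance at 492 nm, expressed as % of vehicle signal; CC50 by 4-parameter non-linear regression. Parental HepG2, 20,000 cells/well, treated 7 days with compound from 30 μM down to 1.0 nM.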

[2] = system: HBV replication in HepAD38 cells; assay: Anti-HBV replication assay in HepAD38 cells (QPCR of extracellular HBV DNA); format: cell-based, HBV (genotype D, serotype ayw); settings: Hepatitis B virus, 168 h, 7 days incubation, extracellular HBV DNA by QPCR, read-out: Anti-HBV EC50
Outline: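 Compounds (1 log10 serial dilutions, […]) were left 7 days on tetracycline-free HepAD38 cultures, a HepG2 line with tet-controlled HBV genotype D. EC50 came from 4-parameter regression of percent inhibition versus vehicle, using supernatant HBV DNA copies/mL measured by QPCR.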

Row | SMILES | CC50 at 7 days [1] | EC50 [2]
1 | Nc1ncc(CNC(=O)C(=O)c2c(Cl)c(C(=O)Nc3ccc(F)c(Cl)c3)c3n2CCC3)s1 [Example 562, 5-(2-(((2-aminothiazol-5-yl)methyl)amino)-2-oxoacetyl)-6-chloro-N-(3-chloro-4-fluorophenyl)-2,3-dihydro-1H-pyrrolizine-7-carboxamide] | 5 to 30 µM | < 0.05 µM
2 | Cc1cc(NC(=O)c2cc(C(=O)C(=O)NC(C)(C)C)n3c2CN(C(=O)OC(C)(C)C)CC3)ccc1F [Example 587, tert-butyl 6-(2-(tert-butylamino)-2-oxoacetyl)-8-((4-fluoro-3-methylphenyl)carbamoyl)-3,4-dihydropyrrolo[1,2-a]pyrazine-2(1H)-carboxylate] | > 30 µM | 0.05 to 0.499 µM
3 | CC(C)(CO)NC(=O)C(=O)c1c(Cl)c(C(=O)Nc2ccnc(F)c2)c2n1CCCC2 [Example 512, 2-chloro-N-(2-fluoropyridin-4-yl)-3-(2-((1-hydroxy-2-methylpropan-2-yl)amino)-2-oxoacetyl)-5,6,7,8-tetrahydroindolizine-1-carboxamide] | > 30 µM | 0.5 to 1 µM
4 | Cc1cc(NC(=O)c2c(C)c(C(=O)C(=O)NC3CCN(c4nccs4)CC3)n(C)c2C)ccc1F [Example 656] | 5 to 30 µM | < 0.05 µM
5 | Cc1cc(NC(=O)c2c(C)c(C(=O)C(=O)N[C@@H](C)CCO)n(C)c2C)ccc1F [Example 142, (S)-N-(4-fluoro-3-methylphenyl)-5-(2-((4-hydroxybutan-2-yl)amino)-2-oxoacetyl)-1,2,4-trimethyl-1H-pyrrole-3-carboxamide] | > 30 µM | < 0.05 µM
6 | Cc1cc(NC(=O)c2c(C)c(C(=O)C(=O)Nc3ccn(CCO)n3)n(C)c2C)ccc1F [Example 307, N-(4-fluoro-3-methylphenyl)-5-(2-((1-(2-hydroxyethyl)-1H-pyrazol-3-yl)amino)-2-oxoacetyl)-1,2,4-trimethyl-1H-pyrrole-3-carboxamide] | > 30 µM | < 0.05 µM
7 | Cc1cc(NC(=O)c2cc(C(=O)C(=O)NC(C)(C)C(F)(F)F)n3c2CCCC3)ccc1F [Example 409, N-(4-fluoro-3-methylphenyl)-3-(2-oxo-2-((1,1,1-trifluoro-2-methylpropan-2-yl)amino)acetyl)-5,6,7,8-tetrahydroindolizine-1-carboxamide] | > 30 µM | 0.05 to 0.499 µM
8 | Cc1cc(NC(=O)c2c(C)c(C(=O)C(=O)NC3(C)CCN(C(=O)c4cn[nH]c4)CC3)n(C)c2C)ccc1F [Example 709, N-(4-fluoro-3-methylphenyl)-1,2,4-trimethyl-5-(2-((4-methyl-1-(1H-pyrazole-4-carbonyl)piperidin-4-yl)amino)-2-oxoacetyl)-1H-pyrrole-3-carboxamide] | > 30 µM | < 0.05 µM
9 | Cc1cc(NC(=O)c2c(C)c(C(=O)C(=O)NC3(CO)CC3)n3c2CCCC3)ccc1F [Example 445, N-(4-fluoro-3-methylphenyl)-3-(2-((1-(hydroxymethyl)cyclopropyl)amino)-2-oxoacetyl)-2-methyl-5,6,7,8-tetrahydroindolizine-1-carboxamide] | 5 to 30 µM | < 0.05 µM
10 | CC(C)(O)CNC(=O)C(=O)c1c(Cl)c(C(=O)Nc2ccc(F)c(F)c2)c2n1CCCC2 [Example 534, 2-chloro-N-(3,4-difluorophenyl)-3-(2-((2-hydroxy-2-methylpropyl)amino)-2-oxoacetyl)-5,6,7,8-tetrahydroindolizine--1 carboxamide] | 5 to 30 µM | 0.05 to 0.499 µM
11 | Cc1cc(NC(=O)c2c(C)c(C(=O)C(=O)NCCN3C(=O)CSC3=O)n(C)c2C)ccc1F [Example 649, 5-(2-((2-(2,4-dioxothiazolidin-3-yl)ethyl)amino)-2-oxoacetyl)-N-(4-fluoro-3-methylphenyl)-1,2,4-trimethyl-1H-pyrrole-3-carboxamide] | > 30 µM | < 0.05 µM
12 | Cc1cc(NC(=O)c2c(Cl)c(C(=O)C(=O)NC3(CO)CC(F)(F)C3)n3c2CCC3)ccc1F [Example 548, 6-chloro-5-(2-((3,3-difluoro-1-(hydroxymethyl)cyclobutyl)amino)-2-oxoacetyl)-N-(4-fluoro-3-methylphenyl)-2,3-dihydro-1H-pyrrolizine-7-carboxamide] | 5 to 30 µM | < 0.05 µM
13 | Cc1cc(NC(=O)c2c(C)c(C(=O)C(=O)N[C@H](CO)[C@@H](C)O)n(C)c2C)ccc1F [Example 143, 5-(2-(((2R,3R)-1,3-dihydroxybutan-2-yl)amino)-2-oxoacetyl)-N-(4-fluoro-3-methylphenyl)-1,2,4-trimethyl-1H-pyrrole-3-carboxamide] | > 30 µM | < 0.05 µM
14 | Cc1cc(NC(=O)c2c(C)c(C(=O)C(=O)NC34CCC(O)(CC3)CC4)n(C)c2C)ccc1F [Example 263, N-(4-fluoro-3-methylphenyl)-5-(2-((4-hydroxybicyclo[2.2.2]octan-1-yl)amino)-2-oxoacetyl)-1,2,4-trimethyl-1H-pyrrole-3-carboxamide] | > 30 µM | < 0.05 µM
15 | Cc1c(C(=O)Nc2cccc(Cl)c2)c(C)n(C)c1C(=O)C(=O)N[C@H]1CC[C@@H](O)CC1 [Example 602, N-(3-chlorophenyl)-5-(2-(((1s,4s)-4-hydroxycyclohexyl)amino)-2-oxoacetyl)-1,2,4-trimethyl-1H-pyrrole-3-carboxamide] | > 30 µM | < 0.05 µM
16 | Cc1cc(NC(=O)c2c(C)c(C(=O)C(=O)N[C@H]3CNC(=O)C3)n(C)c2C)ccc1F [Example 611, (R)-N-(4-fluoro-3-methylphenyl)-1,2,4-trimethyl-5-(2-oxo-2-((5-oxopyrrolidin-3-yl)amino)acetyl)-1H-pyrrole-3-carboxamide] | > 30 µM | < 0.05 µM
17 | Cc1cc(NC(=O)c2c(C)c(C(=O)C(=O)N[C@H]3C[C@@H](O)C3(C)C)n(C)c2C)ccc1F [Example 302, N-(4-fluoro-3-methylphenyl)-5-(2-(((1S,3R)-3-hydroxy-2,2-dimethylcyclobutyl)amino)-2-oxoacetyl)-1,2,4-trimethyl-1H-pyrrole-3-carboxamide] | > 30 µM | < 0.05 µM
18 | Cc1c(C(=O)Nc2ccc(F)c(Cl)c2)c(C)n(C)c1C(=O)C(=O)NC1CCC(F)(F)CC1 [Example 314, N-(3-chloro-4-fluorophenyl)-5-(2-((4,4-difluorocyclohexyl)amino)-2-oxoacetyl)-1,2,4-trimethyl-1H-pyrrole-3-carboxamide] | 5 to 30 µM | < 0.05 µM
19 | Cc1csc(NC(=O)C(=O)c2c(C)c(C(=O)Nc3cc(F)c(F)c(F)c3)c(C)n2C)n1 [Example 323, 1,2,4-trimethyl-5-(2-((4-methylthiazol-2-yl)amino)-2-oxoacetyl)-N-(3,4,5-trifluorophenyl)-1H-pyrrole-3-carboxamide] | 5 to 30 µM | < 0.05 µM
20 | Cc1c(C(=O)Nc2ccc(F)c(Cl)c2)c(C)n(C)c1C(=O)C(=O)NC12CCC(O)(CC1)CC2 [Example 357, N-(3-chloro-4-fluorophenyl)-5-(2-((4-hydroxybicyclo[2.2.2]octan-1-yl)amino)-2-oxoacetyl)-1,2,4-trimethyl-1H-pyrrole-3-carboxamide] | > 30 µM | < 0.05 µM
21 | Cc1cc(NC(=O)c2c(C)c(C(=O)C(=O)N[C@]3(C)CC[C@@H](O)CC3)n(C)c2C)ccc1F [Example 273, N-(4-fluoro-3-methylphenyl)-5-(2-(((1r,4r)-4-hydroxy-1-methylcyclohexyl)amino)-2-oxoacetyl)-1,2,4-trimethyl-1H-pyrrole-3-carboxamide] | > 30 µM | < 0.05 µM
22 | Cc1c(C(=O)Nc2cccc(C(F)F)c2)c(C)n(C)c1C(=O)C(=O)N[C@H]1CC[C@H](O)CC1 [Example 697, N-(3-(difluoromethyl)phenyl)-5-(2-(((1r,4r)-4-hydroxycyclohexyl)amino)-2-oxoacetyl)-1,2,4-trimethyl-1H-pyrrole-3-carboxamide] | > 30 µM | < 0.05 µM
23 | Cc1cc(NC(=O)c2c(C)c(C(=O)C(=O)NC3(CO)CC(F)(F)C3)n(C)c2C)cnc1F [Example 184, 5-(2-((3,3-difluoro-1-(hydroxymethyl)cyclobutyl)amino)-2-oxoacetyl)-N-(6-fluoro-5-methylpyridin-3-yl)-1,2,4-trimethyl-1H-pyrrole-3-carboxamide] | > 30 µM | < 0.05 µM
24 | Cc1cc(NC(=O)c2c(C)c(C(=O)C(=O)N[C@H]3COC[C@@H]3O)n(CCF)c2C)ccc1F [Example 130, N-(4-fluoro-3-methylphenyl)-1-(2-fluoroethyl)-5-(2-(((3S,4R)-4-hydroxytetrahydrofuran-3-yl)amino)-2-oxoacetyl)-2,4-dimethyl-1H-pyrrole-3-carboxamide] | > 30 µM | 0.05 to 0.499 µM
25 | CO[C@H]1CC[C@@H](NC(=O)C(=O)c2c(C)c(C(=O)Nc3cnc(F)c(C)c3)c(C)n2C)CC1 [Example 344, N-(6-fluoro-5-methylpyridin-3-yl)-5-(2-(((1s,4s)-4-methoxycyclohexyl)amino)-2-oxoacetyl)-1,2,4-trimethyl-1H-pyrrole-3-carboxamide] | > 30 µM | 0.05 to 0.499 µM
26 | Cc1noc([C@H](C)NC(=O)C(=O)c2cc(C(=O)Nc3ccc(F)c(C)c3)c3n2CCCC3)n1 [Example 430, (S)-N-(4-fluoro-3-methylphenyl)-3-(2-((1-(3-methyl-1,2,4-oxadiazol-5-yl)ethyl)amino)-2-oxoacetyl)-5,6,7,8-tetrahydroindolizine-1-carboxamide] | > 30 µM | 0.05 to 0.499 µM
27 | Cc1cc(NC(=O)c2c(C)c(C(=O)C(=O)Nc3ccc(B(O)O)cc3)n(C)c2C)ccc1F [Example 255, (4-(2-(4-((4-fluoro-3-methylphenyl)carbamoyl)-1,3,5-trimethyl-1H-pyrrol-2-yl)-2-oxoacetamido)phenyl)boronic acid] | 5 to 30 µM | < 0.05 µM
